Test results as given in PMC12693701, “Glucosinolate-Derived Metabolites from Barbarea vulgaris (Brassicaceae): Evaluation of Antimicrobial, Antioxidant, and Anti-Inflammatory Potentials” (Molecules, 2025).
≈ marks a conversion by molar mass, not a printed value.

What was measured:
B. pumilus NCTC 8241 = assay: Microdilution MIC/MMC with resazurin; type: cell-based, Bacillus pumilus; settings: B. pumilus NCTC 8241, compounds 1–8; for MIC: Bacillus pumilus, NCTC8241, read-out: MIC
Experimental: (§1) The antimicrobial activity was evaluated against 15 microorganisms. This included 11 bacterial strains: four standard strains (Staphylococcus aureus ATCC 25923, Bacillus subtilis ATCC 6633, Bacillus pumilus NCTC 8241, and Escherichia coli ATCC 25922) and six clinical or environmental isolates (Staphylococcus aureus, Escherichia coli, Bacillus cereus, Proteus mirabilis, Salmonella enterica, and Klebsiella pneumoniae). One probiotic strain, Bifidobacterium animalis subsp. lactis was tested. In addition, four fungal strains, Candida albicans ATCC 10231, Trichoderma viride ATCC 13233, Aspergillus flavus ATCC 9170, and Fusarium solani ATCC 11712 were tested. The bacterial strains were kept in glycerol stock at −80 °C and the fungal strains in paraffin oil stock at 4 °C.
(§2) Bacterial and yeast suspensions were prepared using the direct colony method, as previously described by Andrews. The turbidity of the initial suspensions was adjusted to match the 0.5 McFarland standard using a densitometer (Biosan, Riga, Latvia), corresponding to approximately 10^8 colony-forming units (CFU)/mL for bacterial cells and 10^6 CFU/mL for yeast cells. Subsequently, 1:100 dilutions of the initial suspensions were prepared in sterile 0.85% saline. Fungal spore suspensions were obtained by gently harvesting spores from agar slopes containing mature mycelial growth. The collected spore suspensions were then diluted 1:1000 in sterile 0.85% saline prior to use.
(§3) Antimicrobial activity was evaluated by determining the minimum inhibitory concentration (MIC) and minimum microbicidal concentration (MMC) using the microdilution plate method with resazurin as an indicator [28]. In the 96-well plates, 100 μL of Mueller–Hinton broth (Torlak, Belgrade, Serbia) for bacterial testing and Sabouraud broth (Torlak, Belgrade, Serbia) for fungal testing were dispensed into each well. The compounds under investigation were initially dissolved in a 10% dimethyl sulfoxide (DMSO) solution, followed by dilution in sterile distilled water, resulting in a working compound solution containing 1% DMSO. A 100 μL aliquot of the stock solution of the tested compound was added to the first row, and twofold serial dilutions were then carried out using a multichannel pipette. The resulting concentration range was from 5 to 0.039 mg/mL. The inoculated microtiter plates were incubated at 37 °C for 24 h for bacteria, at 28 °C for 48 h for yeasts, and at 28 °C for 72 h for molds.
(§4) Each test also included growth control and sterility control. All tests were conducted in duplicate. MIC was defined as the lowest concentration of tested compounds that prevented resazurin color change from blue to pink. For molds, MIC values of the tested compound were determined as the lowest concentration that inhibited visible mycelia growth. MMC was determined by inoculation of the nutrient agar medium by plating […] of samples from wells, where no indicator color change was recorded. At the end of the incubation period, the lowest concentration with no growth (no colony) was defined as MMC.
(§5) Doxycycline, ampicillin and amphotericin B (- Sigma-Aldrich, St. Louis, MO, USA) and ketoconazole (Hemofarm A.D., Vršac, Serbia) were dissolved in a nutrient liquid medium. Doxycycline is a broad-spectrum antibiotic effective against both aerobic and anaerobic Gram-positive and Gram-negative bacteria. Ampicillin, a beta-lactam antibiotic, primarily targets Gram-positive bacteria but also some Gram-negative strains. Amphotericin B is an antifungal drug often used for serious systemic fungal infections and is one of the effective treatments for fungal infections caused by Aspergillus sp. Ketoconazole is an antifungal agent used to inhibit the growth of Candida species.

[1] = tested on: B. animalis subsp. lactis; assay: Microdilution MIC/MMC with resazurin; type: cell-based, Bifidobacterium animalis subsp. lactis; settings: B. animalis subsp. lactis, compounds 1–8; for MIC: Bifidobacterium animalis, read-out: MIC
Experimental: as §1, §2, §3, §4, §5

C. albicans ATCC 10231 = assay: Microdilution MIC/MMC with resazurin; type: cell-based, Candida albicans; settings: C. albicans ATCC 10231, compounds 1–8; for MIC: Candida albicans, ATCC10231, read-out: MIC
Experimental: as §1, §2, §3, §4, §5

B. subtilis ATCC 6633 = assay: Microdilution MIC/MMC with resazurin; type: cell-based, Bacillus subtilis; settings: B. subtilis ATCC 6633, compounds 1–8; for MIC: Bacillus subtilis, ATCC6633, read-out: MIC
Experimental: as §1, §2, §3, §4, §5

E. coli = assay: Microdilution MIC/MMC with resazurin; type: cell-based, Escherichia coli; settings: E. coli isolate, compounds 1–8; for MIC: Escherichia coli, read-out: MIC
Experimental: as §1, §2, §3, §4, §5

E. coli ATCC 25922 = assay: Microdilution MIC/MMC with resazurin; type: cell-based, Escherichia coli; settings: E. coli ATCC 25922, compounds 1–8; for MIC: Escherichia coli, ATCC25922, read-out: MIC
Experimental: as §1, §2, §3, §4, §5

K. pneumoniae = assay: Microdilution MIC/MMC with resazurin; type: cell-based, Klebsiella pneumoniae; settings: K. pneumoniae, compounds 1–8; for MIC: Klebsiella pneumoniae, read-out: MIC
Experimental: as §1, §2, §3, §4, §5

S. enterica = assay: Microdilution MIC/MMC with resazurin; type: cell-based, Salmonella enterica; settings: compounds 1–8; for MIC: Salmonella enterica
Experimental: as §1, §2, §3, §4, §5

B. cereus = assay: Microdilution MIC/MMC with resazurin; type: cell-based, Bacillus cereus; settings: B. cereus, compounds 1–8; for MIC: Bacillus cereus, read-out: MIC
Experimental: as §1, §2, §3, §4, §5

[2] = ABTS radical scavenging assay; settings: mean ± SD
Experimental: The ABTS radical cation solution was prepared following the previously described protocol. Different concentrations of the analyzed samples were prepared in DMSO. The test samples were prepared following the specified procedure: 20 µL of sample was combined with 980 µL of methanol, followed by the addition of 1000 µL of ABTS solution. Absorbance was measured at 734 nm. All measurements were performed in triplicate.

S. aureus ATCC 25923 = assay: Microdilution MIC/MMC with resazurin; type: cell-based, Staphylococcus aureus; settings: S. aureus ATCC 25923, compounds 1–8; for MIC: Staphylococcus aureus, ATCC25923, read-out: MIC
Experimental: as §1, §2, §3, §4, §5

S. aureus = assay: Microdilution MIC/MMC with resazurin; type: cell-based, Staphylococcus aureus; settings: S. aureus isolate, compounds 1–8; for MIC: Staphylococcus aureus, read-out: MIC
Experimental: as §1, §2, §3, §4, §5

F. solani ATCC 11712 = assay: Microdilution MIC/MMC; type: cell-based, Fusarium solani; settings: F. solani ATCC 11712, compounds 1–8; for MIC: Fusarium solani, ATCC11712, read-out: MIC
Experimental: as §1, §2, §3, §4, §5

P. mirabilis = assay: Microdilution MIC/MMC with resazurin; type: cell-based, Proteus mirabilis; settings: P. mirabilis, compounds 1–8; for MIC: Proteus mirabilis, read-out: MIC
Experimental: as §1, §2, §3, §4, §5

Row | SMILES | MMC (B. pumilus NCTC 8241) [mg/mL] | MIC (B. pumilus NCTC 8241) [mg/L] | MMC [1] [mg/mL] | MIC [1] [mg/L] | MMC (C. albicans ATCC 10231) [mg/mL] | MIC (C. albicans ATCC 10231) [mg/L] | MMC (B. subtilis ATCC 6633) [mg/mL] | MIC (B. subtilis ATCC 6633) [mg/L] | MMC (E. coli) [mg/mL] | MIC (E. coli) [mg/L] | MMC (E. coli ATCC 25922) [mg/mL] | MIC (E. coli ATCC 25922) [mg/L] | MMC (K. pneumoniae) [mg/mL] | MIC (K. pneumoniae) [mg/L] | MIC (S. enterica) [mg/L] | MMC (S. enterica) [mg/mL] | MMC (B. cereus) [mg/mL] | MIC (B. cereus) [mg/L] | ABTS Scavenging Ability ([2]; 25 µM) [%] | ABTS Scavenging Ability ([2]; 50 µM) [%] | other results
1 | O=C1NCC(c2ccccc2)S1 (stereo not drawn) [Compound 6, 5-phenyl-1,3-thiazolidin-2-one] | >5 | > 5000 | >5 | > 5000 | >5 | > 5000 | >5 | > 5000 | >5 | > 5000 | >5 | > 5000 | >5 | > 5000 | > 5000 | >5 | >5 | > 5000 | 2.6 ± 0.7 | 3.9 ± 1.2 | ABTS Scavenging Ability ([2]; 100 µM): 5.1 ± 0.9%; MMC (S. aureus ATCC 25923): >5 mg/mL; MIC (S. aureus ATCC 25923): > 5000 mg/L; MMC (S. aureus): >5 mg/mL; MIC (S. aureus): > 5000 mg/L; MMC (F. solani ATCC 11712): >5 mg/mL; MIC (F. solani ATCC 11712): > 5000 mg/L; MMC (P. mirabilis): >5 mg/mL; MIC (P. mirabilis): > 5000 mg/L
2 | S=C1NCC(c2ccccc2)O1 (racemic) [Compound 4, rac-5-Phenyl-1,3-oxazolidine-2-thione] | 2.5 | 1250 (≈ 6.97 mM) | 5 | 1250 (≈ 6.97 mM) | 5 | 5000 (≈ 27.9 mM) | 5 | 2500 (≈ 13.9 mM) | 5 | 2500 (≈ 13.9 mM) | 5 | 2500 (≈ 13.9 mM) | 5 | 2500 (≈ 13.9 mM) | 2500 (≈ 13.9 mM) | 5 | 5 | 5000 (≈ 27.9 mM) | 0.9 ± 0.1 | 1.6 ± 0.9 | ABTS Scavenging Ability ([2]; 100 µM): 2.5 ± 0.3%; MMC (S. aureus ATCC 25923): 2.5 mg/mL; MIC (S. aureus ATCC 25923): 1250 mg/L (≈ 6.97 mM); MMC (S. aureus): 1.25 mg/mL; MIC (S. aureus): 1250 mg/L (≈ 6.97 mM); MMC (F. solani ATCC 11712): 3.75 mg/mL; MIC (F. solani ATCC 11712): 2500 mg/L (≈ 13.9 mM); MMC (P. mirabilis): 5 mg/mL; MIC (P. mirabilis): 2500 mg/L (≈ 13.9 mM)
3 | O=C(O)C1CSC(=S)N1 (stereo not drawn) [Compound 3, 2-Thioxothiazolidine-4-carboxylic Acid] | 0.625 | 625 (≈ 3.83 mM) | 2.5 | 625 (≈ 3.83 mM) | 1.25 | 312 (≈ 1.91 mM) | 5 | 2500 (≈ 15.3 mM) | 5 | 1250 (≈ 7.66 mM) | 1.25 | 625 (≈ 3.83 mM) | 2.5 | 2500 (≈ 15.3 mM) | 2500 (≈ 15.3 mM) | 2.5 | 2.5 | 2500 (≈ 15.3 mM) | 1.2 ± 0.3 | 1.9 ± 1.2 | ABTS Scavenging Ability ([2]; 100 µM): 2.6 ± 0.7%; MMC (S. aureus ATCC 25923): 0.625 mg/mL; MIC (S. aureus ATCC 25923): 625 mg/L (≈ 3.83 mM); MMC (S. aureus): 0.312 mg/mL; MIC (S. aureus): 156 mg/L (≈ 0.956 mM); MMC (F. solani ATCC 11712): 0.625 mg/mL; MIC (F. solani ATCC 11712): 625 mg/L (≈ 3.83 mM); MMC (P. mirabilis): 2.5 mg/mL; MIC (P. mirabilis): 2500 mg/L (≈ 15.3 mM)
